In patent publication US5151432A, “Substituted amino acid compounds” (Adir et Compagnie, priority 1989, dated 1992):

Tests used:
[1] = molecular target: angiotensin I converting enzyme (Homo sapiens, UniProt P12821); test: Inhibitory effects on angiotensin I converting enzyme in vitro (conversion of hippurylhistidylleucine to hippuric acid, RYAN method); format: biochemical; conditions: substrate HHL
Experimental: The activity of the converting enzyme is determined in vitro according to the method of RYAN J. W. et al. (Biochem. J., 1977, 167, 501-504), which utilizes the reaction of conversion of hippurylhistidylleucine (HHL) to hippuric acid. The latter is assayed by liquid scintillation after extraction with ethyl acetate. The inhibitory effect of a compound is determined by incubation at different doses in the presence of the substrate and the converting enzyme. The results are expressed as the IC50 of these compounds.

[2] = tested on: amnesic scopolamine-treated animals (scopolamine-induced amnesia); test: Promnesic effects: one trial-passive avoidance test in rats with scopolamine-induced amnesia; format: in vivo, Male OFA rats (Iffa-Credo); conditions: for % Retention at 300 sec. / Latency of transit: 24 h retention
Description: Male OFA rats (Iffa-Credo) weighting 210-240 g are placed in individual cages under standard environmental conditions. The memory test is a test of one trial-passive avoidance in which experimental amnesia is induced by prior injection of scopolamine.
The apparatus consists of a two-compartment enclosure separated by an automatically closing door.
On the day of conditioning, each animal is placed during 60 seconds in the aversive compartment (white, brightly lit).
Then the door is rapidly open and the rat can freely enter the compartment where it feels secure (black and dark). Transit thereto triggers closing of the door, followed by application to the animal of an unescapable electric shock via the floor of the dark compartment (0.6 mA; 3 seconds).
Memory retention is measured 24 hours later under the same conditions. For this purpose, the latency of transit to the black compartment is measured and the maximum observation time is set at 300 seconds.
The memory enhancing effect of the compounds under investigation is measured in animals receiving scopolamine. These compounds are administered I.P. twice daily during the 3 days preceding the memory test, and then 1 hour before the conditioning test (i.e. 30 minutes before the scopolamine).
The promnesic effects of the compounds increase the transit time relative to the amnesic animals.
The compounds of the present invention are compared to oxiracetam, the nootropic agent most recently proposed in the therapy of memory disorders.

angiotensin I converting enzyme, sequence (P12821 30-1306): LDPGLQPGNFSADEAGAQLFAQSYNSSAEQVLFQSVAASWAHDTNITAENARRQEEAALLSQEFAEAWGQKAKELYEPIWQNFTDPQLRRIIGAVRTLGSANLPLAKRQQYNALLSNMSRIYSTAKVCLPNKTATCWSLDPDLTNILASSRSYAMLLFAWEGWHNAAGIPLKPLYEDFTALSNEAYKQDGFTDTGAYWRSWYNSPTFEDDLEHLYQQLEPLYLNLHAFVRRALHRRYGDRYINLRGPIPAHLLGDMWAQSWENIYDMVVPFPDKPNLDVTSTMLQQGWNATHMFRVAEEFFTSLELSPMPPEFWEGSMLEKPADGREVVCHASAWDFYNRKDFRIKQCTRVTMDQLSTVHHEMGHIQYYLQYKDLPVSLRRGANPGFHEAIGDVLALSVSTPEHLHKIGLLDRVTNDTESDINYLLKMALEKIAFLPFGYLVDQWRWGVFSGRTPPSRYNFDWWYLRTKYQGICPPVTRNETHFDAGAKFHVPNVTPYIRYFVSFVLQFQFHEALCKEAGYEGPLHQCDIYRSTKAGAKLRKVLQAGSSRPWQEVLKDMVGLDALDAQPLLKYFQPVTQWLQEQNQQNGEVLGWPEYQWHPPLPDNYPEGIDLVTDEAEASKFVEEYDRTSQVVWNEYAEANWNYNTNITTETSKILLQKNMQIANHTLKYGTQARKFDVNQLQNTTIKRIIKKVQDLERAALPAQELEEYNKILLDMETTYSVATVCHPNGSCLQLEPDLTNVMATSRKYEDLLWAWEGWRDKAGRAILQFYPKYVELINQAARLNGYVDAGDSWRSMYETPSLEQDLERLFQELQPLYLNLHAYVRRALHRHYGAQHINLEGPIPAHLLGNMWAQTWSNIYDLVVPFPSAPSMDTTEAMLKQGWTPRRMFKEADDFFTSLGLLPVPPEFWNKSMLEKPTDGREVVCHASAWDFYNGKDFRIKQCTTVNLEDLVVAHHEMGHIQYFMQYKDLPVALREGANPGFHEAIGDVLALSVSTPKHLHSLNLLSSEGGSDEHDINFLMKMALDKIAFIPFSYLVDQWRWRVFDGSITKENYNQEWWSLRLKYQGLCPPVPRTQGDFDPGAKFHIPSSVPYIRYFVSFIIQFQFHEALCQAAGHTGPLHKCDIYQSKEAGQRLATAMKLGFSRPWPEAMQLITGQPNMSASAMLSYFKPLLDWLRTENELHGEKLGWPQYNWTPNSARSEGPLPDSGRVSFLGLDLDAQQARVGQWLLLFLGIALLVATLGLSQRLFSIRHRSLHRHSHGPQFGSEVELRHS

| SMILES | IC50 [1] [nM] | % Retention at 300 sec. ([2]; 0.003 mg/kg I.P.) [%] | Latency of transit ([2]; 0.003 mg/kg I.P.) [s] | % Retention at 300 sec. ([2]; 0.01 mg/kg I.P.) [%] | Latency of transit ([2]; 0.01 mg/kg I.P.) [s] | % Retention at 300 sec. ([2]; 0.03 mg/kg I.P.) [%] | Latency of transit ([2]; 0.03 mg/kg I.P.) [s] | % Retention at 300 sec. ([2]; 0.1 mg/kg I.P.) [%] | Latency of transit ([2]; 0.1 mg/kg I.P.) [s] | % Retention at 300 sec. ([2]; 0.3 mg/kg I.P.) [%] | Latency of transit ([2]; 0.3 mg/kg I.P.) [s] | % Retention at 300 sec. ([2]; 1 mg/kg I.P.) [%] | Latency of transit ([2]; 1 mg/kg I.P.) [s] | % Retention at 300 sec. ([2]; 3 mg/kg I.P.) [%] | Latency of transit ([2]; 3 mg/kg I.P.) [s] | further results |
| --- | --- | --- | --- | --- | --- | --- | --- | --- | --- | --- | --- | --- | --- | --- | --- | --- |
| CCC[C@H](N[C@@H](C)C(=O)N1C2CCC(CC2)[C@H]1C(N)=O)C(=O)O [Example 2, (3S)-2-{(S)-2-[(S)-1-CARBOXYBUTYLAMINO]-PROPIONYL}-3-CARBAMOYL-2-AZABICYCLO-[2.2.2]OCTANE] | 50 | – | – | – | – | – | – | – | – | – | – | – | – | – | – | – |
| CCC[C@H](N[C@@H](C)C(=O)N1C2CCC(CC2)[C@H]1C(N)=O)C(N)=O [Example 3, (3S)-2-{(S)-2-[(S)-1-CARBAMOYLBUTYL-AMINO]PROPIONYL}-3-CARBAMOYL-2-AZABICYCLO[2.2.2]OCTANE] | – | 5 | 108.2 | 10 | 119.3 | 35 | 166.4 | 45 | 171.6 | 40 | 182.6 | 20 | 125.2 | 10 | 121.3 | – |
| CCCCCCCCOC(=O)[C@@H]1C2CCC(CC2)N1C(=O)[C@H](C)N[C@@H](CCC)C(N)=O [Example 4, (3S)-2-{(S)-2-[(S)-1-CARBAMOYLBUTYLAMINO]PROPIONYL}-2-AZABICYCLO[2.2.2]-OCTANE-3-CARBOXYLIC ACID n-OCTYL ESTER] | – | 10 | 115.6 | 30 | 149.3 | 50 | 205.1 | 55 | 207.2 | 40 | 202.1 | 40 | 171.5 | 5 | 106.7 | – |
| NCCCC[C@H](N[C@@H](CCc1ccccc1)C(=O)O)C(=O)N1C2CCC(CC2)[C@H]1C(N)=O [Example 8, (3S)-2-{(S)-2-[(S)-1-CARBOXY-3-PHENYLPROPYLAMINO]-6-AMINOHEXANOYL}-3-CARBAMOYL-2-AZABICYCLO[2.2.2]OCTANE] | 18 | – | – | – | – | – | – | – | – | – | – | – | – | – | – | – |
| NC(=O)CN1CC(O)CC1=O (stereo not drawn) [OXIRACETAM, oxiracetam, reference compound] | – | – | – | – | – | – | – | – | – | – | – | 10 | 97.4 | 10 | 126.5 | % Retention at 300 sec. ([2]; 10 mg/kg I.P.): 5%; Latency of transit ([2]; 10 mg/kg I.P.): 115.3 s; % Retention at 300 sec. ([2]; 30 mg/kg I.P.): 30%; Latency of transit ([2]; 30 mg/kg I.P.): 150.1 s; % Retention at 300 sec. ([2]; 100 mg/kg I.P.): 40%; Latency of transit ([2]; 100 mg/kg I.P.): 182.5 s; % Retention at 300 sec. ([2]; 300 mg/kg I.P.): 45%; Latency of transit ([2]; 300 mg/kg I.P.): 200.2 s; % Retention at 300 sec. ([2]; 1000 mg/kg I.P.): 30%; Latency of transit ([2]; 1000 mg/kg I.P.): 175.8 s; minimal effective dose ([2]; Rattus norvegicus, ip, I.P., minimal active dose, read-out: dose with protective effect (scopolamine-induced amnesia)): ≥ 30 mg/kg |
